In EP4606801A1, “FUSED HETEROCYCLIC COMPOUND AND USE THEREOF” (Chengdu Zenitar Biomedical Technology Co., Ltd., priority 2022, dated 2024):

What was measured:
PARP2 = biological target: T1, PARP2 (Homo sapiens, UniProt Q9UGN5); experiment: Determination of PARP2 enzyme (histone-coated plate, Biotin-NAD+); type: biochemical
T1 construct: purchased BPS 80502
Procedure: • 1.2.1 Preparation of buffer solution: PBST: 1x PBS, 0.05% Tween-20; blocking solution: 1x PBS, 0.05% Tween-20, 5% BSA; reaction buffer solution: 50 mM HEPES (pH 7.5), 0.002% Tween-20, 0.1% BSA, 100 mM NaCl, 2mM DTT. • 1.2.2 Coating: A 100 ng/mL Histone coating solution was prepared by using 1x PBS, 25 uL of the coating solution was transferred to a 384-well reaction plate, and the reaction plate was coated overnight at 4°C. • 1.2.3 Washing: After the coating was completed, the coating solution was discarded, and the reaction plate was washed with the PBST solution by means of transferring 50uL of the PBST solution to the 384-well reaction plate, letting it stand for 5 min, discarding the washing solution, refilling the reaction plate, and repeating the washing process 3 times. Finally, the reaction plate was tapped dry and the next step of blocking was proceeded with. • 1.2.4 Blocking: 50 uL of the blocking solution was transferred to the 384-well reaction plate and set for 1 h. • 1.2.5 Washing: After the blocking was completed, the blocking solution was discarded, the reaction plate was washed 3 times with the PBST solution according to the method in Step 2, and the reaction plate was tapped dry. • 1.2.6 A 25/10× PARP2 solution was prepared, then 10 µL of the PARP2 solution was transferred to the 384-well reaction plate.

PARP5A = biological target: T2, PARP5A (Homo sapiens, UniProt O95271); experiment: Determination of PARP5A enzyme (histone-coated plate, Biotin-NAD+); type: biochemical
T2 construct: purchased BPS 80504
T2 sequence (O95271 1001-1327): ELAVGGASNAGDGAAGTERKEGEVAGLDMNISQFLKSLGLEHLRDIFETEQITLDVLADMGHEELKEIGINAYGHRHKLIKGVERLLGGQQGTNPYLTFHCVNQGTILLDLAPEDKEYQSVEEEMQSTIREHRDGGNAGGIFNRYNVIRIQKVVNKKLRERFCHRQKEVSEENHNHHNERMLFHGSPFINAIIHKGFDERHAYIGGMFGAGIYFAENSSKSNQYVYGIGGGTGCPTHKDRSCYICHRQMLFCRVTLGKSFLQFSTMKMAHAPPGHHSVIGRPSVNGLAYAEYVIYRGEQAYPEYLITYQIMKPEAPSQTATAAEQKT
Procedure: • 1.3.1 Preparation of buffer solution solution: PBST: 1x PBS, 0.05% Tween-20; blocking solution: 1x PBS, 0.05% Tween-20, 5% BSA; reaction buffer solution: 50 mM HEPES (pH 7.5), 0.002% Tween-20, 0.1% BSA, 100 mM NaCl, 2mM DTT. • 1.3.2 Coating: A 100 ng/mL Histone coating solution was prepared by using 1x PBS, 25 uL of the coating solution was transferred to a 384-well reaction plate, and the reaction plate was coated overnight at 4°C. • 1.3.3 Washing: After the coating was completed, the coating solution was discarded, and the reaction plate was washed with the PBST solution by means of transferring 50uL of the PBST solution to the 384-well reaction plate, letting it stand for 5 min, discarding the washing solution, refilling the reaction plate with the PBST solution, and repeating the washing process 3 times. Finally, the reaction plate was tapped dry and the next step of blocking was proceeded with. • 1.3.4 Blocking: 50 uL of the blocking solution was transferred to the 384-well reaction plate and set for 1 h. • 1.3.5 Washing: After the blocking was completed, the blocking solution was discarded, the reaction plate was washed 3 times with the PBST solution according to the method in Step 2, and the reaction plate was tapped dry. • 1.3.6 A 25/10× PARP5A solution was prepared, then 10 µL of the PARP5A solution was transferred to the 384-well reaction plate. For negative control wells, 10 µL of the reaction buffer solution instead was transferred, resulting in the final concentration of PARP5A of 10 nM. • 1.3.7 A 2,000x compound was prepared, 50 nL of the compound was transferred to with echo, 19.95 uL of the reaction buffer solution was added into the compound, mix well, and 5 uL of the mixed compound was transferred to the 384-well reaction plate. • 1.3.8 A 25/10x Biotin-NAD+ solution was prepared, 10uL of the Biotin-NAD+ solution was transferred to the 384-well reaction plate, resulting in a final Biotin-NAD+ concentration of 2uM, and incubated at room temperature for 60 min. • 1.3.9 Washing: After the reaction was completed, the reaction liquid was discarded. The reaction plate was washed 3 times with the PBST solution according to the method in Step 2, and the reaction plate was tapped dry. • 1.3.10 A Stre-HRP solution was prepared by means of diluting it with the blocking solution, 25uL of the Stre-HRP solution was transferred to the reaction plate, and incubated at room temperature for 1 h, resulting the final concentration of Stre-HRP of 0.1 µg/mL. • 1.3.11 Washing: The Stre-HRP solution was discarded, the reaction plate was washed 3 times with the PBST solution according to the method in Step 2, and the reaction plate was tapped dry. • 1.3.12 Color developing: Femto-ECL Substrate A, Femto-ECL Substrate B, and QuantaRed ADHP were mixed in a 50:50:1 ratio.

SUM14PT tumor cells = experiment: In-vivo pharmacodynamic study on subcutaneous xenograft tumor model of breast cancer SUM14PT; parameters: species or system nude mice; conditions: Fig. 4
Procedure: Experimental procedure: In this study, a mice model was established by subcutaneously inoculating SUM14PT tumor cells. Eight groups were divided for the experiment, with 6 mice in each group. The negative control group (Control) received normal saline at 0.2 mL per mice per administration, given orally once per day; the carboplatin control group (Carboplatin, Car) received 20 mg/kg at 0.2 mL per mice per administration, administered via intraperitoneal injection once every 7 days.

in vivo = conditions: male, SD, rat, po
Procedure: Experimental procedure: The compound, a small amount of DMSO and a sodium chloride injection were added to prepare the final solution for administration. The compound was orally administered to 6 male SD rats. […] The supernatant was collected and transferred into a sample vial for assay. Range of standard curve: 10 - 10,000 ng·mL^-1.

T1 sequence (Q9UGN5 whole entry): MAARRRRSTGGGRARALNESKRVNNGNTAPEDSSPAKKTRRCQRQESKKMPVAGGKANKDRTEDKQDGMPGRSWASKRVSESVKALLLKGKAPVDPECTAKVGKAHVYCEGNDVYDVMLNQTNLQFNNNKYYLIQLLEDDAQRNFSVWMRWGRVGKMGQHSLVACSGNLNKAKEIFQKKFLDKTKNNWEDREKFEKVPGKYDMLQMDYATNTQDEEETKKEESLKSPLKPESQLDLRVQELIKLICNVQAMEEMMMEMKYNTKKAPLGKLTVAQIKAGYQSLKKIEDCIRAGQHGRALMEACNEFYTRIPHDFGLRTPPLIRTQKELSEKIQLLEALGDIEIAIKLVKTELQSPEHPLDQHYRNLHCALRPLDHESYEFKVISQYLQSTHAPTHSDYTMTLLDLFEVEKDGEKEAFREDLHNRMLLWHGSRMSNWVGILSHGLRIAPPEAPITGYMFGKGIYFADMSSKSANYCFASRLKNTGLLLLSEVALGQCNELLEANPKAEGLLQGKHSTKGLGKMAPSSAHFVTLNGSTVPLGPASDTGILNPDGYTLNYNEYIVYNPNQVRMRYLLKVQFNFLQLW

[2H]C([2H])([2H])C([2H])([2H])c1cc2ncc(CN3CC=C(c4ccc(C(=O)NC)nc4)CC3)cc2[nH]c1=O [Compound 6, 1'-((7-(ethyl-d5)-6-oxo-5,6-dihydro-1,5-naphthyridin-3-yl)methyl)-N-methyl-1',2',3',6'-tetrahy dro-[3,4'-bipyridine]-6-carboxamide]
IC50 (PARP2): > 1000 nM
IC50 (PARP5A): > 1000 nM
therapeutic efficacy in combination with carboplatin (SUM14PT tumor cells; 1 mg/kg orally once daily + carboplatin, versus Olaparib 100 mg/kg + carboplatin): better therapeutic efficacy than Olaparib
anti-tumor efficacy, monotherapy (SUM14PT tumor cells; 0.3 and 1 mg/kg orally once daily, versus Olaparib 100 mg/kg orally once daily): better anti-tumor efficacy compared to Olaparib
half-life (in vivo): 8.4 h
